Test results as given in the CheMixHub viscosity set.
± gives the uncertainty stated by the source.

Assay: xn = mol fraction of the nth substance listed

OCCOCCOCCO + O
Conditions | viscosity [mPa·s]
293.15 K, 100 kPa, x2 = 0.05 | 46.03 ± 0.86
293.15 K, 100 kPa, x2 = 0.094 | 44.8 ± 0.82
298.15 K, 100 kPa, x2 = 0.014 | 37.14 ± 0.62
298.15 K, 100 kPa, x2 = 0.094 | 34.66 ± 0.57
298.15 K, 101.33 kPa, x1 = 0.0824 | 3.65 ± 0.1
298.15 K, 101.33 kPa, x1 = 0.1678 | 8.7 ± 0.23
298.15 K, 101.33 kPa, x1 = 0.35 | 19.77 ± 0.52
303.15 K, 100 kPa, x2 = 0.05 | 28.19 ± 0.44
303.15 K, 100 kPa, x2 = 0.094 | 27.25 ± 0.4
303.15 K, 100 kPa, x2 = 0.112 | 27.95 ± 0.96
303.15 K, 101 kPa, x1 = 0.05023 | 2.114 ± 0.081
303.15 K, 101 kPa, x1 = 0.1004 | 4.102 ± 0.084
303.15 K, 101 kPa, x1 = 0.1518 | 6.604 ± 0.089
303.15 K, 101 kPa, x1 = 0.2006 | 9.27 ± 0.095
303.15 K, 101 kPa, x1 = 0.2528 | 11.91 ± 0.11
303.15 K, 101 kPa, x1 = 0.2995 | 14.77 ± 0.11
303.15 K, 101 kPa, x1 = 0.3928 | 18.53 ± 0.13
303.15 K, 101 kPa, x1 = 0.5013 | 21.84 ± 0.15
303.15 K, 101 kPa, x1 = 0.5995 | 24.34 ± 0.17
303.15 K, 101 kPa, x1 = 0.6648 | 25.69 ± 0.18
303.15 K, 101 kPa, x1 = 0.7981 | 27.13 ± 0.2
303.15 K, 101 kPa, x1 = 0.8445 | 27.86 ± 0.21
303.15 K, 101 kPa, x1 = 0.8998 | 28.37 ± 0.22
303.15 K, 101 kPa, x1 = 0.954 | 28.74 ± 0.22
303.15 K, 101.33 kPa, x1 = 0.0004 | 0.781 ± 0.011
303.15 K, 101.33 kPa, x1 = 0.0008 | 0.788 ± 0.011
303.15 K, 101.33 kPa, x1 = 0.0014 | 0.798 ± 0.011
303.15 K, 101.33 kPa, x1 = 0.0024 | 0.82 ± 0.011
303.15 K, 101.33 kPa, x1 = 0.0056 | 0.875 ± 0.012
303.15 K, 101.33 kPa, x1 = 0.011 | 0.986 ± 0.013
303.15 K, 101.33 kPa, x1 = 0.0317 | 1.48 ± 0.019
303.15 K, 101.33 kPa, x1 = 0.0563 | 2.254 ± 0.028
303.15 K, 101.33 kPa, x1 = 0.0988 | 4.058 ± 0.049
303.15 K, 101.33 kPa, x1 = 0.1954 | 8.931 ± 0.096
303.15 K, 101.33 kPa, x1 = 0.2932 | 14.1 ± 0.14
303.15 K, 101.33 kPa, x1 = 0.3871 | 18.23 ± 0.18
303.15 K, 101.33 kPa, x1 = 0.5032 | 22.21 ± 0.22
303.15 K, 101.33 kPa, x1 = 0.5991 | 24.2 ± 0.24
303.15 K, 101.33 kPa, x1 = 0.6914 | 26.06 ± 0.25
303.15 K, 101.33 kPa, x1 = 0.7941 | 27.17 ± 0.26
308.15 K, 100 kPa, x2 = 0.05 | 22.55 ± 0.32
308.15 K, 100 kPa, x2 = 0.094 | 21.88 ± 0.29
308.15 K, 100 kPa, x2 = 0.112 | 22.44 ± 0.69
308.15 K, 101 kPa, x1 = 0.05023 | 1.848 ± 0.081
308.15 K, 101 kPa, x1 = 0.1004 | 3.491 ± 0.083
308.15 K, 101 kPa, x1 = 0.1518 | 5.543 ± 0.087
308.15 K, 101 kPa, x1 = 0.2006 | 7.668 ± 0.092
308.15 K, 101 kPa, x1 = 0.2528 | 9.722 ± 0.099
308.15 K, 101 kPa, x1 = 0.2995 | 11.99 ± 0.11
308.15 K, 101 kPa, x1 = 0.3928 | 14.94 ± 0.12
308.15 K, 101 kPa, x1 = 0.5013 | 17.51 ± 0.14
308.15 K, 101 kPa, x1 = 0.5995 | 19.48 ± 0.15
308.15 K, 101 kPa, x1 = 0.6648 | 20.58 ± 0.16
308.15 K, 101 kPa, x1 = 0.7981 | 21.8 ± 0.17
308.15 K, 101 kPa, x1 = 0.8445 | 22.32 ± 0.18
308.15 K, 101 kPa, x1 = 0.8998 | 22.65 ± 0.19
308.15 K, 101.33 kPa, x1 = 0.0004 | 0.707 ± 0.01
308.15 K, 101.33 kPa, x1 = 0.0008 | 0.714 ± 0.01
308.15 K, 101.33 kPa, x1 = 0.0014 | 0.725 ± 0.01
308.15 K, 101.33 kPa, x1 = 0.0024 | 0.736 ± 0.01
308.15 K, 101.33 kPa, x1 = 0.0056 | 0.787 ± 0.011
308.15 K, 101.33 kPa, x1 = 0.011 | 0.877 ± 0.012
308.15 K, 101.33 kPa, x1 = 0.0317 | 1.298 ± 0.017
308.15 K, 101.33 kPa, x1 = 0.0563 | 1.934 ± 0.025
308.15 K, 101.33 kPa, x1 = 0.0988 | 3.33 ± 0.041
308.15 K, 101.33 kPa, x1 = 0.1954 | 7.273 ± 0.081
308.15 K, 101.33 kPa, x1 = 0.2932 | 11.27 ± 0.12
308.15 K, 101.33 kPa, x1 = 0.3871 | 14.47 ± 0.15
313.15 K, 100 kPa, x2 = 0.014 | 19.23 ± 0.23
313.15 K, 100 kPa, x2 = 0.05 | 18.39 ± 0.23
313.15 K, 100 kPa, x2 = 0.094 | 17.83 ± 0.21
313.15 K, 101 kPa, x1 = 0.05023 | 1.618 ± 0.081
313.15 K, 101 kPa, x1 = 0.1004 | 3.012 ± 0.082
313.15 K, 101 kPa, x1 = 0.1518 | 4.689 ± 0.085
313.15 K, 101 kPa, x1 = 0.2006 | 6.418 ± 0.089
313.15 K, 101 kPa, x1 = 0.2528 | 8.113 ± 0.093
313.15 K, 101 kPa, x1 = 0.2995 | 9.888 ± 0.1
313.15 K, 101 kPa, x1 = 0.3928 | 12.22 ± 0.11
313.15 K, 101 kPa, x1 = 0.5013 | 14.27 ± 0.12
313.15 K, 101 kPa, x1 = 0.5995 | 15.84 ± 0.13
313.15 K, 101 kPa, x1 = 0.6648 | 16.75 ± 0.14
313.15 K, 101 kPa, x1 = 0.7981 | 17.67 ± 0.15
313.15 K, 101 kPa, x1 = 0.8445 | 18.12 ± 0.15
313.15 K, 101 kPa, x1 = 0.8998 | 18.44 ± 0.16
313.15 K, 101 kPa, x1 = 0.954 | 18.69 ± 0.16
318.15 K, 100 kPa, x2 = 0.014 | 15.91 ± 0.17
318.15 K, 100 kPa, x2 = 0.05 | 15.2 ± 0.18
318.15 K, 100 kPa, x2 = 0.094 | 14.73 ± 0.16
318.15 K, 100 kPa, x2 = 0.112 | 15.13 ± 0.42
318.15 K, 101 kPa, x1 = 0.05023 | 1.455 ± 0.08
318.15 K, 101 kPa, x1 = 0.1004 | 2.621 ± 0.081
318.15 K, 101 kPa, x1 = 0.1518 | 4.011 ± 0.084
318.15 K, 101 kPa, x1 = 0.2006 | 5.421 ± 0.086
318.15 K, 101 kPa, x1 = 0.2528 | 6.753 ± 0.09
318.15 K, 101 kPa, x1 = 0.2995 | 8.235 ± 0.094
318.15 K, 101 kPa, x1 = 0.3928 | 10.07 ± 0.1
318.15 K, 101 kPa, x1 = 0.5013 | 11.79 ± 0.11
318.15 K, 101 kPa, x1 = 0.5995 | 13.02 ± 0.12
318.15 K, 101 kPa, x1 = 0.6648 | 13.73 ± 0.12
318.15 K, 101 kPa, x1 = 0.7981 | 14.53 ± 0.13
318.15 K, 101 kPa, x1 = 0.8445 | 14.92 ± 0.13
318.15 K, 101 kPa, x1 = 0.8998 | 15.2 ± 0.14
318.15 K, 101 kPa, x1 = 0.954 | 15.4 ± 0.14
323.15 K, 100 kPa, x2 = 0.014 | 13.33 ± 0.14
323.15 K, 100 kPa, x2 = 0.05 | 12.7 ± 0.15
323.15 K, 100 kPa, x2 = 0.094 | 12.32 ± 0.13
323.15 K, 100 kPa, x2 = 0.112 | 12.64 ± 0.34
323.15 K, 101 kPa, x1 = 0.05023 | 1.295 ± 0.08
323.15 K, 101 kPa, x1 = 0.1004 | 2.296 ± 0.081
323.15 K, 101 kPa, x1 = 0.1518 | 3.473 ± 0.083
323.15 K, 101 kPa, x1 = 0.2006 | 4.63 ± 0.085
323.15 K, 101 kPa, x1 = 0.2528 | 5.724 ± 0.087
323.15 K, 101 kPa, x1 = 0.2995 | 6.927 ± 0.092
323.15 K, 101 kPa, x1 = 0.3928 | 8.441 ± 0.097
323.15 K, 101 kPa, x1 = 0.5013 | 9.827 ± 0.1
323.15 K, 101 kPa, x1 = 0.5995 | 10.84 ± 0.11
323.15 K, 101 kPa, x1 = 0.6648 | 11.45 ± 0.11
323.15 K, 101 kPa, x1 = 0.7981 | 12.09 ± 0.12
323.15 K, 101 kPa, x1 = 0.8445 | 12.41 ± 0.12
323.15 K, 101 kPa, x1 = 0.8998 | 12.64 ± 0.12
323.15 K, 101 kPa, x1 = 0.954 | 12.8 ± 0.12
